Article PMC5390467, “Novel lead structures with both Plasmodium falciparum gametocytocidal and asexual blood stage activity identified from high throughput compound screening” (Malaria Journal, 2017)
Values joined by “and” are separate entries in the source; they are usually repeats but may differ in a detail not shown here. Equal values may be shown once.

How the values were obtained:
CDK4-cyclinD3 = molecular target: T1, CDK4-cyclinD3 (Homo sapiens, UniProt P11802); test: Kinome scan profile; format: binding; settings: 10 μM
T1 construct: purchased DiscoverX (KINOMEscan)

SNRK = molecular target: T2, SNRK (Homo sapiens, UniProt Q9NRH2); test: Kinome scan profile; format: binding; settings: 10 μM
T2 construct: purchased DiscoverX (KINOMEscan)
T2 sequence (Q9NRH2 1-765): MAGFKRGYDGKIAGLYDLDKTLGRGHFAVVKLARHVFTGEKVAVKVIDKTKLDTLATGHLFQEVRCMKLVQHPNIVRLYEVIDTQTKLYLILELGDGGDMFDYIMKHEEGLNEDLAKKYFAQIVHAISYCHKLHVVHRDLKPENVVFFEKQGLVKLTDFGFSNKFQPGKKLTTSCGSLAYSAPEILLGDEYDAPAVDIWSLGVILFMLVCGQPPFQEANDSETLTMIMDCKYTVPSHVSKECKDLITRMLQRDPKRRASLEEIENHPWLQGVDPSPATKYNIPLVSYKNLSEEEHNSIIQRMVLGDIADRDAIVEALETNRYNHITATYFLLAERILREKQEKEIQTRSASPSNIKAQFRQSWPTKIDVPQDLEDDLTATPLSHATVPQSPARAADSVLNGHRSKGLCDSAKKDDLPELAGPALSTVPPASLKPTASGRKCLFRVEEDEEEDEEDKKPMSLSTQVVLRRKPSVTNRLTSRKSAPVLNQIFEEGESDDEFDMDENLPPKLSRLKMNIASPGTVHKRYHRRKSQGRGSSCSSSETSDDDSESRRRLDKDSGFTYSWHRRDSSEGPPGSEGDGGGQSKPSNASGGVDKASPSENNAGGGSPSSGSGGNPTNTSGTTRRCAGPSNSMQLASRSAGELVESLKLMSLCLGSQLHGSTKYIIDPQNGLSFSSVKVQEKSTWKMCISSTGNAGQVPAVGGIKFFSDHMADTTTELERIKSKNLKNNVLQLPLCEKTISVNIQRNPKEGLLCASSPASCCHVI

HepG2 cells = test: HepG2 cytotoxicity assay (AlamarBlue); format: cell-based, human; settings: HepG2 cells, 72 h, AlamarBlue, up to 46 µM
Method: (§1) Asexual parasites of P. falciparum strain NF54 were cultured as described previously. Briefly, parasites were maintained in RPMI 1640 medium containing 10% positive human serum + erythrocytes (5% haematocrit), 2.5% sodium bicarbonate and 11 µg/mL gentamicin at 37 °C with 5% CO2, 5% O2 and 90% N2. Gametocyte cultures were set up at 0.1% parasitaemia and on days 9–10 treated with 50 mM N-acetylglucosamine (NAG) to block further asexual growth. Stage III–V gametocytes were isolated by Percoll density gradient centrifugation on day 12 and returned to culture for 24 h before being used in the assay. At the time of the assay over 73% of the gametocytes were stage IV or V (Additional file 1). HepG2 cells (ATCC, cat. no. 77400) were cultured in 175-cm^2 tissue culture flasks with 30 ml growth medium at 37 °C in a 5% CO2 and 5% O2 humidified atmosphere. Growth medium was made with Dulbecco’s Modified Eagle Medium with 10% fetal bovine serum (FBS). Growth medium was replaced every other day and cells were passaged at 75% confluence.
Drug activity on HepG2 was tested using an AlamarBlue assay as previously described. Briefly, 5 μL/well of HepG2 cells were dispensed with a seeding density of 1000 cells/well using the Multidrop Combi. 23 nL compound was transferred using the NX-TR Pintool. After 72 h incubation under the standard culture condition, 5 μL/well of 2X AlamarBlue dye was added to the cells, the plates were incubated for 2 h at 37 °C with 5% CO2 and then were read in a fluorescence detection mode (Ex = 525 nm, Em = 598 nm) on a ViewLux plate reader.

[1] = system: P. falciparum NF54 asexual parasites; test: asexual parasite growth inhibition assay (SYBR Green); format: cell-based, Plasmodium falciparum; settings: 72 h, mean ± SD, n = 3
Method: as §1
Drug activity on asexual stage parasites was tested using a SYBR Green assay as described previously. Briefly, 2.5 μL/well complete culture medium was dispensed into each well of 1536-well plates using the Multidrop Combi followed by 23 nL compound transferring using the NX-TR Pintool. Parasites were diluted to 0.5% parasitaemia in complete culture medium with 2% haematocrit and drugs diluted in DMSO (≤0.5%). The pre-diluted parasites were dispensed into a 1536-well plate (2.5 μL/well). After 72 h incubation under the standard culture conditions, 5 μL/well of lysis buffer containing SYBR Green I was added to the parasite culture and incubated for 30 min at room temperature. The fluorescence of each well was measured in a fluorescence detection mode (Ex = 490 nm, Em = 520 nm) using a ViewLux plate reader (PerkinElmer).

[2] = molecular target: T3, JAK2(JH1domain-catalytic) (Homo sapiens, UniProt O60674); test: Kinome scan profile; format: binding; settings: 10 μM
T3 construct: JAK2(JH1domain-catalytic); purchased DiscoverX (KINOMEscan)

IKK-epsilon = molecular target: T4, IKK-epsilon (Homo sapiens, UniProt Q14164); test: Kinome scan profile; format: binding; settings: 10 μM
T4 construct: purchased DiscoverX (KINOMEscan)
T4 sequence (Q14164 1-716): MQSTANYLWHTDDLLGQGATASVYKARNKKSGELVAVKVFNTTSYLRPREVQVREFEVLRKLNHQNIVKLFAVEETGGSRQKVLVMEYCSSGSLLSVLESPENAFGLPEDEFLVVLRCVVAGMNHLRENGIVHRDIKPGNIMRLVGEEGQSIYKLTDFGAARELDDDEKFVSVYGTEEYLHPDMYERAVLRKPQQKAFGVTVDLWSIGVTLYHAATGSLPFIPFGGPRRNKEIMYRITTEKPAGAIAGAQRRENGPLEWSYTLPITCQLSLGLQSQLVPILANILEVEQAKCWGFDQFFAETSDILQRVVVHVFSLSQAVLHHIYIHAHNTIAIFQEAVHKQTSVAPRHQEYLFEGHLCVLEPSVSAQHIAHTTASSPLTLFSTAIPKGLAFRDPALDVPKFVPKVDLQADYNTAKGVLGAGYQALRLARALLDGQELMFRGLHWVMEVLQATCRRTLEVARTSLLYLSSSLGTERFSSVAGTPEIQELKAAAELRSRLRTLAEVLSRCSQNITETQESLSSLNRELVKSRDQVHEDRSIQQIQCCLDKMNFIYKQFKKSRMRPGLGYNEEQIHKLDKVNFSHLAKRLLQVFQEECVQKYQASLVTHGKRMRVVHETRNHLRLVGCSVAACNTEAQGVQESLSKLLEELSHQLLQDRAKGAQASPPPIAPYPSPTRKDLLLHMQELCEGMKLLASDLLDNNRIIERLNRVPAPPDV

[3] = molecular target: T5, RSK2(Kin.Dom.2-C-terminal) (Homo sapiens, UniProt P51812); test: Kinome scan profile; format: binding; settings: 10 μM
T5 construct: RSK2(Kin.Dom.2-C-terminal); purchased DiscoverX (KINOMEscan)

MST4 = molecular target: T6, MST4 (Homo sapiens, UniProt Q9P289); test: Kinome scan profile; format: binding; settings: 10 μM
T6 construct: purchased DiscoverX (KINOMEscan)
T6 sequence (Q9P289 whole entry): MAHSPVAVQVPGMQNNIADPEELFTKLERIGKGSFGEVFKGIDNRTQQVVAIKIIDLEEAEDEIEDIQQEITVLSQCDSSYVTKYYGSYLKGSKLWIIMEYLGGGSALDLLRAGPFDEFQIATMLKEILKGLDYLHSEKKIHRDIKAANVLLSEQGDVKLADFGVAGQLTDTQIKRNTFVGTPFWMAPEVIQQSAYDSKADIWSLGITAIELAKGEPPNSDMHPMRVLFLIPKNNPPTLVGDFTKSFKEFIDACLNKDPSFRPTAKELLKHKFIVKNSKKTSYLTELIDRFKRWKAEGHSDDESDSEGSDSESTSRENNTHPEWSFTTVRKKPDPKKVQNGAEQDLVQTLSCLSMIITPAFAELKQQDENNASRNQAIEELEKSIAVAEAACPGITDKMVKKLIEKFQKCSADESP

T5 sequence (P51812 422-679 limits assumed): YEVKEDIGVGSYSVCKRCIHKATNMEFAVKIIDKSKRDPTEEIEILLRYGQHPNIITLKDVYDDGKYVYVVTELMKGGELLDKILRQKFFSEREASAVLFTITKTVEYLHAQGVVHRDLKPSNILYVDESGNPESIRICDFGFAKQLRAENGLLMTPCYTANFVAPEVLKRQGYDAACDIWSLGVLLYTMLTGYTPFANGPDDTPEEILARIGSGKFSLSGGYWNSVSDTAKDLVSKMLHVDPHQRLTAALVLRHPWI
T3 sequence (O60674 849-1124 limits assumed): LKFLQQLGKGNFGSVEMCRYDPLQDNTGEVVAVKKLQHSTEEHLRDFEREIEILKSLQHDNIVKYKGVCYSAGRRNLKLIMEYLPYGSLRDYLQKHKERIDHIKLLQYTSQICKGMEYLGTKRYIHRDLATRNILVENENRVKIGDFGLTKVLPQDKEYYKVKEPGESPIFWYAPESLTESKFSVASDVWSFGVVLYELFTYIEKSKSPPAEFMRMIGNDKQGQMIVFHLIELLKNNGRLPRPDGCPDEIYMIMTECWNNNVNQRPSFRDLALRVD
T1 sequence (P11802 whole entry): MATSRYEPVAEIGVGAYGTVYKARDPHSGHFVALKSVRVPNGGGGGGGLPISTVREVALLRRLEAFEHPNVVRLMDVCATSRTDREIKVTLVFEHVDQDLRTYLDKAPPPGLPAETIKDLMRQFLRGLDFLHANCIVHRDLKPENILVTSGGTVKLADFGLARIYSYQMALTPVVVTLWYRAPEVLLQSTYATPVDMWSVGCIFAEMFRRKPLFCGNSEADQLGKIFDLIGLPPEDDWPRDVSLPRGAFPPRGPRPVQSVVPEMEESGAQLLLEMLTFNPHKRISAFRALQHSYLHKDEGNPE
T1 sequence (P30281 whole entry partner): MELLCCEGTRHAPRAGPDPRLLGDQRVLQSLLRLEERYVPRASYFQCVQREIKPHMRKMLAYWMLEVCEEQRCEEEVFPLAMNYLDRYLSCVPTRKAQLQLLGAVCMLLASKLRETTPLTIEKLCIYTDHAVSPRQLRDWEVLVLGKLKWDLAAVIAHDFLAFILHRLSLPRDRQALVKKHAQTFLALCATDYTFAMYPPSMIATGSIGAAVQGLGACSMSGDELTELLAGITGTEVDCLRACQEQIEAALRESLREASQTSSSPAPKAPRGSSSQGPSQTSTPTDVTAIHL

Q: Which results are given for CCN1CCN(Cc2c(O)ccc3c(=O)c(Oc4ccccc4C(C)C)c(C(F)(F)F)oc23)CC1 [NCGC00100599]?
A: % Control, CDK4-cyclinD3 (CDK4-cyclinD3): 15 % Control; % Control, SNRK (SNRK): 27 % Control; HepG2, IC50 (dash = less than 25% cytotoxicity) (HepG2 cells): – (Indicates compounds with less than 25% cytotoxicity at up to 46 µM); IC50 [1]: 0.339 µM and 0.34 µM; % Control, JAK2(JH1domain-catalytic) [2]: 31 % Control; % Control, IKK-epsilon (IKK-epsilon): 31 % Control; % Control, RSK2(Kin.Dom.2-C-terminal) [3]: 29 % Control; % Control, MST4 (MST4): 34 % Control
